Article PMC4790425 (Journal of medicinal chemistry, 2015)
Numbering of substitutions follows the chain as printed. Entries after “also recorded” stand apart in the source; their conditions may differ.

What was measured:
[1] = target: T1, CCK1R WT (Homo sapiens, UniProt P32238); assay: Competition binding with 125I-BDZ-1, CHO membranes; conditions: for α (cooperativity constant): 125I-BDZ-1 radioligand, allosteric ternary complex model
T1 sequence (P32238 1-428): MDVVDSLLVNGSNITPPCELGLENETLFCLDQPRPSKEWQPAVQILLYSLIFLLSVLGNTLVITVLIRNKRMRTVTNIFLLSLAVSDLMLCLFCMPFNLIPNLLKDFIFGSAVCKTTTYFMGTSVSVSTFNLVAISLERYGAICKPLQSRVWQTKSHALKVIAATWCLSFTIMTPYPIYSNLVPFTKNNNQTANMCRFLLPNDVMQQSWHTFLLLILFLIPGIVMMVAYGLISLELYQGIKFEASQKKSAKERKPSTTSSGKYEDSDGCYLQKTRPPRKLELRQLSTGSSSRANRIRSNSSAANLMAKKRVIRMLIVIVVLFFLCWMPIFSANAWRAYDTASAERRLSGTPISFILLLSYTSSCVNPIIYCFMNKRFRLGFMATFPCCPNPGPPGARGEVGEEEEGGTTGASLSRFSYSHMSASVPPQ

[2] = target: T1, CCK1R WT; assay: Competition binding with 125I-CCK, CHO membranes; conditions: 125I-CCK radioligand; allosteric ternary complex model
[3] = target: T2, CCK2R WT (Homo sapiens, UniProt P32239); assay: Intracellular calcium response, CHO-CCK2R cells; format: cell-based
T2 sequence (P32239 1-447): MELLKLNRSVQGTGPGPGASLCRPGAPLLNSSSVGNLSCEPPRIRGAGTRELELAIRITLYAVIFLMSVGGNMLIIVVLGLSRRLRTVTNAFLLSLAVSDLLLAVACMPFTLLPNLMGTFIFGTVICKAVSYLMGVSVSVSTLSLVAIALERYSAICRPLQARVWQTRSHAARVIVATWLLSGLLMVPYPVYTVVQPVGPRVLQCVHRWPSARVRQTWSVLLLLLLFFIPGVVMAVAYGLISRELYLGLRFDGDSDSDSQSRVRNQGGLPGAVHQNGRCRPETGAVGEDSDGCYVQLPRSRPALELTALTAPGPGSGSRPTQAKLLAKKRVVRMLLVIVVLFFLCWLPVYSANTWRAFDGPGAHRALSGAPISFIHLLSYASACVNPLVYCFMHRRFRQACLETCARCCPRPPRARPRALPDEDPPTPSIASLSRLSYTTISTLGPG

[4] = target: T2, CCK2R WT; assay: Competition binding with 125I-BDZ-2, CHO membranes; conditions: 125I-BDZ-2 radioligand; allosteric ternary complex model
[5] = target: T2, CCK2R WT; assay: Competition binding with 125I-CCK, CHO membranes; conditions: for α (cooperativity constant): 125I-CCK radioligand, allosteric ternary complex model; for inhibition of saturable 125I-CCK binding: maximal inhibition at CCK2R
[6] = target: T1, CCK1R WT; conditions: compared with CCK at the CCK1R
[7] = target: T3, wild type rat CCK1R (Rattus norvegicus, UniProt P30551); assay: Competition binding with 125I-BDZ-1, receptor expressed in COS cells
T3 sequence (P30551 1-444): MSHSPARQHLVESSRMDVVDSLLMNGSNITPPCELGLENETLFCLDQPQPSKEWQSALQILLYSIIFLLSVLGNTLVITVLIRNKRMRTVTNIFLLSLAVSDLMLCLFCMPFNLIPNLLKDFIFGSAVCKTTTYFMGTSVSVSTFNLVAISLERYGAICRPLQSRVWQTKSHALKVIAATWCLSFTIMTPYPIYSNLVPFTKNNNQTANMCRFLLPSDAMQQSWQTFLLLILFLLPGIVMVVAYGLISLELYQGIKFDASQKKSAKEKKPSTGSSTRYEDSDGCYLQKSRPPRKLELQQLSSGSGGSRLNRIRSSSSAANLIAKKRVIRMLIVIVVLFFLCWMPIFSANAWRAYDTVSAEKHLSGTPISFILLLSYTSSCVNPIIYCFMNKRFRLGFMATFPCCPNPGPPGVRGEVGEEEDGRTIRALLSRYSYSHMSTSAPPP

[8] = target: T4, rCCK1R-Ala317,321,325 (Rattus norvegicus, UniProt P30551, I332A/L340A/V336A); format: binding; conditions: non-dimerizing rat mutant
T4 sequence (P30551 1-444 I332A/V336A/L340A): T3 sequence (P30551 1-444) with I332A, V336A, L340A

Row | SMILES | α (cooperativity constant) [1] | α (cooperativity constant) [2] | biological (agonist) response at the CCK2R [3] | α (cooperativity constant) [4] | α (cooperativity constant) [5] | inhibition of saturable 125I-CCK binding [5] | maximal intracellular calcium response [6] | pKi, BDZ-1 binding affinity ([1]; wild type human CCK1R) | pKi, BDZ-1 binding affinity [7] | pKi, BDZ-1 binding affinity [8]
1 | Cc1cc(C)cc(C[C@H]2CCCCN2C(=O)CN2C(=O)[C@@H](Cc3n[nH]c4ccccc34)c3nnc(-c4ccccc4)n3-c3ccccc32)c1 [PF-04756956, (4S)-6-{2-[(2R)-2-(3,5-dimethylbenzyl)piperidin-1-yl]-2-oxoethyl}-4-(1H-indazol-3-ylmethyl)-1-phenyl-4H-[1,2,4]triazolo[4,3-a][1,5]benzodiazepin-5(6H)-one] | 0.65 ± 0.08 | ~0.0 | no agonist activity at all; also recorded: no biological response | 0.60 ± 0.04 | 0.32 ± 0.07 | approximately 60% | not statistically different from those elicited by CCK |  |  | 
2 | CN1C(=O)[C@@H](NC(=O)Nc2cccc(I)c2)N=C(c2ccccc2)c2ccccc21 [BDZ-1, (S)-1-(3-iodophenyl)-3-(1-methyl-2-oxo-5-phenyl-2,3-dihydro-1H-enzo[e][1,4]diazepin-3-yl)urea] |  |  |  |  |  |  |  | 8.38 ± 0.16 | 9.55 ± 0.25 | 9.66 ± 0.09
3 | CC(C)N(Cc1ccccc1)C(=O)CN1C(=O)[C@@H](Cc2c[nH]c3ccccc23)c2nnc(-c3ccccc3)n2-c2ccccc21 [CE-326597, N-benzyl-2-[(4S)-4-(1H-indol-3-ylmethyl)-5-oxo-1-phenyl-4,5-dihydro-6H-[1,2,4]triazolo[4,3-a][1,5]benzodiazepin-6-yl]-N-isopropylacetamide] | 0.54 ± 0.06 | ~0.00 | weak partial agonist; also recorded: very weak partial agonist | 0.47 ± 0.06 | 0.32 ± 0.01 | approximately 60% | not statistically different from those elicited by CCK |  |  | 
